Laboratory results published in US5428038A, “Benzopyranones, a method for producing them and uses therefor” (Dr. Willmar Schwabe GmbH & Co., priority 1991, dated 1995).
Where two headings read alike, the source gives them in different places.

Tests used:
[1] = test system: NMDA-induced tonic convulsions; assay: NMDA test (40 mg/kg i.v.), protection against tonic convulsions (antiepileptic efficacy); assay type: in vivo, male NMRI mice; settings: Mus musculus, po; for responders at 25 mg/kg: 25 mg/kg p.o. 1 h before test
Procedure: (§1) In order to determine the neuroprotective and anticonvulsive activity of the compounds in accordance with the invention of the general formula I, two slightly different methods were employed as follows: […]
(§2) 1. In order to determine the neuroprotective efficacy NMDA at a rate of 25 mg/kg/10 ml was administered intravenously to male NMRI mice with a body weight of 20 to 25 g. As a consequence of this application the animals suffer clonic and partly tonic convulsions, which lead to death. As a criterion for the efficacy of the investigated compounds prevention of death is used.
2. In order to ascertain the antiepileptic efficacy the same method was utilized with an NMDA dosage of 40 mg/kg/10 ml i.v. This higher NMDA dosage led in the case of all animals to the occurrence of tonic convulsions.
(§3) All animals used in the investigations had free access to food and water prior to the experiments. The test and reference substances were all administered as a suspension in 0.2% agar or water, partly by the intermediary of solution promoters such as for instance PEG-400, perorally using an esophageal probe. Control animals received the same volumes of the solvent with optional solution promoters. One hour after the application of the substance NMDA was administered intravenously and the animals observed for the occurrence of convulsions.
In table 2 the results of the tests (NMDA 40 mg i.v.) performed in accordance with method 2 are compiled with dosages of 5-25 mg of the compounds in accordance with the invention per kg of body weight in comparison with known anticonvulsants and antiepileptics. As a percentage efficacy the percentage of animals is used which in the test were protected against the occurrence of tonic convulsions.
(§4) The determination of the ED50 values was performed in accordance with the method described in Lichtfield and Wilcoxon, J. Pharmacol. exp. Therapeut. 96, 99 (1949) in each case with 4 to 5 groups of 10 animals per dosage rate.

[2] = test system: ovalbumin-induced anaphylactic paw edema; assay: Passive rat paw anaphylaxy (inhibition of edema volume; antiallergic and anti-inflammatory); assay type: in vivo, male Sprague-Dawley rats; settings: Rattus norvegicus, po; 25 mg/kg p.o. 1 h before test; read-out: Protective action (percentage inhibition of edema volume)
Procedure: The determination of the antiallergic and anti-inflammatory properties of the compounds in accordance with the invention was using a passive rat paw anaphylaxy model.
Male Sprague-Dawley rats were utilized for all tests. The animals were kept under standardized environmental conditions with free access to food and water. For sensitization to the antigen 100 μl of a mouse antiserum to ovalbumin was injected sublplantarly into the left rear paw. […] The opposite paw was for control injected subplantarly only with 100 μl of the solvent (sterile physiological NaCl solution). Overnight the investigated animals were deprived of food but had water ad lib.
Per group in all tests between 6 and 8 animals were used. One hour later the anaphylactic reaction was caused by the intravenous injection of 10 mg/10 ml/kg ovalbumin in physiological NaCl solution. […] The edema volume was calculated from the difference between the values of the two paws. The antiallergic action is in this case expressed as a percentage inhibition of the edema volume of the animals in the test group as compared with control groups undergoing parallel investigation. […] The determination of the ED50 values was performed by linear regression after log transformation of the administered doses, at least three dosage rates being employed.

NMDA-induced death = assay: NMDA test (25 mg/kg i.v.), prevention of NMDA-induced death (neuroprotective efficacy); assay type: in vivo, male NMRI mice; settings: Mus musculus, po, NMDA 25 mg/kg i.v.; for ED50: 1 h, dose protecting 50% of animals against NMDA-induced death one hour after application; for responders at 25 mg/kg: 25 mg/kg p.o. 1 h before test; for responders at 100 mg/kg: 100 mg/kg p.o. 1 h before test; for responders at 50 mg/kg: 50 mg/kg p.o. 1 h before test; for responders at 20 mg/kg: 20 mg/kg p.o. 1 h before test
Procedure: as §1, §2, §3
In table 1 the results of the tests (NMDA 25 mg i.v.) performed in accordance with method 1 are compiled with dosages of 5-100 mg of the compounds in accordance with the invention per kg of body weight as compared with known NMDA-antagonists. As a percentage efficacy the percentage of surviving animals is used.
as §4

[3] = NMDA 40 mg/kg i.v., read-out: Protective action (percentage of animals protected against tonic convulsions)
[4] = read-out: Protective action (percentage of surviving animals)
[5] = 5 mg/kg p.o. 1 h before test, NMDA 40 mg/kg i.v., read-out: Protective action (percentage of animals protected against tonic convulsions)
[6] = 50 mg/kg p.o. 1 h before test, NMDA 40 mg/kg i.v., read-out: Protective action (percentage of animals protected against tonic convulsions)
[7] = 1 h, read-out: Protective action (percentage of animals protected against tonic convulsions)

Row | Structure (SMILES) | inhibition in vivo at 25 mg/kg [2] [%] | ED50 (NMDA-induced death) [mg/kg] | responders at 25 mg/kg (NMDA-induced death; [4]) [%] | also measured
1 | COc1cc2oc(=O)ccc2cc1OCC(O)CN1CCN(c2ccccc2)CC1 (racemic) [Example 18, (±)-7-methoxy-6-[2-hydroxy-3-(4-phenyl-1-piperazinyl)propoxy]-2H-1-benzopyran-2-one] | 56 | 6.4 | 100 | responders at 25 mg/kg [1, 3]: 100%
2 | COc1cc2oc(=O)ccc2cc1OCC(O)CN1CCN(c2cccc(Cl)c2)CC1 (racemic) [Example 19, (±)-6-{3-[4-(3-chlorophenyl)-1-piperazinyl]-2-hydroxypropoxy}-7-methoxy-2H-1-benzopyran-2-one] | 32 | 8.3 | 100 | responders at 25 mg/kg [1, 3]: 87.5%
3 | COc1cc2ccc(=O)oc2cc1OCC(O)CN1CCC(c2ccccc2)CC1 (racemic) [Example 23, (±)-7-[2-hydroxy-3-(4-phenyl-1-piperidinyl)-propoxy]-6-methoxy-2H-1-benzopyran-2-one] |  | 28.5 |  | responders at 5 mg/kg [1, 5]: 12.5%; responders at 100 mg/kg (NMDA-induced death; [4]): 100%
4 | CCOc1cc2ccc(=O)oc2cc1OCCCN1CCN(c2ccccc2)CC1 [Example 4, 6-ethoxy-7-[3-(4-phenyl-1-piperazinyl)propoxy]-2H-1-benzopyran-2-one] | 79 | 1.7 | 100 | responders at 5 mg/kg [1, 5]: 62.5%
5 | COc1cc2oc(=O)ccc2cc1OCCCN1CCN(c2cccc(C(F)(F)F)c2)CC1 [Example 6, 7-methoxy-6-{3-[4-(3-trifluoromethylphenyl)-1-piperazinyl]propoxy}-2H-1-benzopyran-2-one] |  | 13.5 | 87.5 | responders at 25 mg/kg [1, 3]: 0%
6 | COc1cc2ccc(=O)oc2cc1OCCCN1CCC(c2ccccc2)CC1 [Example 10, 6-methoxy-7-[3-(4-phenyl-1-piperidinyl)propoxy]-2H-1-benzopyran-2-one] | 22 | 23 | 75 | responders at 5 mg/kg [1, 5]: 25%
7 | COc1cc2oc(=O)cc(C)c2cc1OCCCN1CCC(c2ccccc2)CC1 [Example 27, 7-methoxy-4-methyl-6-[3-(4-phenyl-1-piperidinyl)propoxy]-2H-1-benzopyran-2-one] | 40 |  | 50 | 
8 | COc1cc2oc(=O)c(C)c(C)c2cc1OCCCN1CCN(c2ccccc2)CC1 [Example 28, 7-methoxy-3,4-dimethyl-6-[3-(4-phenyl-1-piperazinyl)propoxy]-2H-1-benzopyran-2-one] | 72 |  | 87.5 | 
9 | COc1cc2oc(=O)cc(-c3ccccc3)c2cc1OCCCN1CCN(c2ccccc2)CC1 [Example 39, 7-methoxy-4-phenyl-6-[3-(4-phenyl-1-piperazinyl)propoxy]-2H-1-benzopyran-2-one] | 26 |  | 62.5 | 
10 | COc1cc2oc(=O)cc(-c3ccccc3)c2cc1OCCCN1CCC(c2ccccc2)CC1 [Example 40, 7-methoxy-4-phenyl-6-[3-(4-phenyl-1-piperidinyl)propoxy]-2H-1-benzopyran-2-one] | 27 |  |  | responders at 100 mg/kg (NMDA-induced death; [4]): 37.5%
11 | COc1cc2oc(=O)c3c(c2cc1OCCCN1CCN(c2ccccc2)CC1)CCCC3 [Example 42, 7,8,9,10-tetrahydro-3-methoxy-2-[3-(4-phenyl-1-piperazinyl)propoxy]-6H-dibenzo[b,d]pyran-6-one] | 39 |  | 100 | 
12 | COc1cc2oc(=O)c3c(c2cc1OCCCN1CCC(c2ccccc2)CC1)CCCC3 [Example 43, 7,8,9,10-tetrahydro-3-methoxy-2-[3-(4-phenyl-1-piperidinyl)propoxy]-6H-dibenzo[b,d]pyran-6-one] | 19 | 5.5 | 100 | responders at 5 mg/kg [1, 5]: 37.5%
13 | COc1cc2oc(=O)c3c(c2cc1OCCCN1CCN(c2ccccc2)CC1)CCC3 [Example 45, 2,3-dihydro-7-methoxy-8-[3-(4-phenyl-1-piperazinyl)propoxy]cyclopenta[c][1]benzopyran-4(1H)-one] | 69 | 1.2 | 100 | 
14 | COc1cc2oc(=O)c3c(c2cc1OCCCCN1CCN(c2ccccc2)CC1)CCC3 [Example 46, 2,3-dihydro-7-methoxy-8-[4-(4-phenyl-1-piperazinyl)butyloxy]cyclopenta[c][1]benzopyran-4(1H)-one] | 35 | 3.9 | 100 | 
15 | COc1cc2oc(=O)c3c(c2cc1OCCN1CCC(c2ccccc2)CC1)CCC3 [Example 48, 2,3-dihydro-7-methoxy-8-[2-(4-phenyl-1-piperidinyl)ethoxy]cyclopenta[c][1]benzopyran-4(1H)-one] | 35 | 4 |  | responders at 5 mg/kg (NMDA-induced death; 5 mg/kg p.o. 1 h before test, read-out: Protective action (percentage of surviving animals)): 100%
16 | COc1cc2oc(=O)c3c(c2cc1OCCCN1CCN(c2ccc(F)cc2)CC1)CCC3 [Example 52, 8-{3-[4-(4-fluorophenyl)-1-piperazinyl]propoxy}-2,3-dihydro-7-methoxy-cyclopenta[c][1]benzopyran-4(1H)-one] | 74 | 1.2 | 100 | 
17 | NC(=O)N1c2ccccc2C=Cc2ccccc21 [carbamazepin] |  |  |  | responders at 50 mg/kg [1, 6]: 75%
18 | COc1ccc2c(c1)[C@]13CCCC[C@@H]1[C@H](C2)N(C)CC3 [dextromethorphan, reference compound] |  | 66.7 |  | ED50 ([1]; 1 h): 58 mg/kg; responders at 100 mg/kg [1, 7]: 100%; responders at 50 mg/kg (NMDA-induced death; [4]): 50%
19 | CN1C(=O)CN=C(c2ccccc2)c2cc(Cl)ccc21 [diazepam] |  |  |  | responders at 5 mg/kg [1, 7]: 25%
20 | O=C1NC(=O)C(c2ccccc2)(c2ccccc2)N1 [diphenylhydantoin] |  |  |  | responders at 50 mg/kg [1, 6]: 50%
21 | Fc1ccc(C(c2ccc(F)cc2)N2CCN(C/C=C/c3ccccc3)CC2)cc1 [flunarizin, reference compound] |  | 22.8 |  | responders at 50 mg/kg [1, 6]: 100%; responders at 50 mg/kg (NMDA-induced death; [4]): 100%
22 | COCCOC(=O)C1=C(C)NC(C)=C(C(=O)OC(C)C)C1c1cccc([N+](=O)[O-])c1 (stereo not shown) [nimodipin, reference compound] |  | 18.5 |  | ED50 ([1]; 1 h, dose protecting 50% of animals against tonic convulsions one hour after application, NMDA 40 mg/kg i.v., read-out: ED50): 25.4 mg/kg; responders at 20 mg/kg ([1]; 20 mg/kg p.o. 1 h before test, NMDA 40 mg/kg i.v., read-out: Protective action (percentage of animals protected against tonic convulsions)): 25%; responders at 20 mg/kg (NMDA-induced death; [4]): 87.5%
23 | CCC1(c2ccccc2)C(=O)NC(=O)NC1=O [phenobarbital] |  |  |  | responders at 50 mg/kg [1, 7]: 62.5%
24 | CCCC(CCC)C(=O)O [valproinic acid] |  |  |  | responders at 250 mg/kg [1, 7]: 87.5%
25 | COc1ccc(CCN(C)CCCC(C#N)(c2ccc(OC)c(OC)c2)C(C)C)cc1OC (stereo not shown) [verapamil, reference compound] |  | 17.3 |  | responders at 50 mg/kg [1, 7]: 50%; responders at 20 mg/kg (NMDA-induced death; [4]): 87.5%
